ChEMBL document CHEMBL4184156, “Repurposing Hsp90 inhibitors as antibiotics targeting histidine kinases” (Bioorg Med Chem Lett, 2017)
Converted amounts (≈) assume the structure as drawn. The source made the active and inactive calls. The calls are words filed in the database; no cut-off is given here.

T1: Histidine protein kinase DivJ (Caulobacter vibrioides (strain ATCC 19089 / CB15) (Caulobactercrescentus)) (UniProt Q03228)
T1 sequence (whole entry): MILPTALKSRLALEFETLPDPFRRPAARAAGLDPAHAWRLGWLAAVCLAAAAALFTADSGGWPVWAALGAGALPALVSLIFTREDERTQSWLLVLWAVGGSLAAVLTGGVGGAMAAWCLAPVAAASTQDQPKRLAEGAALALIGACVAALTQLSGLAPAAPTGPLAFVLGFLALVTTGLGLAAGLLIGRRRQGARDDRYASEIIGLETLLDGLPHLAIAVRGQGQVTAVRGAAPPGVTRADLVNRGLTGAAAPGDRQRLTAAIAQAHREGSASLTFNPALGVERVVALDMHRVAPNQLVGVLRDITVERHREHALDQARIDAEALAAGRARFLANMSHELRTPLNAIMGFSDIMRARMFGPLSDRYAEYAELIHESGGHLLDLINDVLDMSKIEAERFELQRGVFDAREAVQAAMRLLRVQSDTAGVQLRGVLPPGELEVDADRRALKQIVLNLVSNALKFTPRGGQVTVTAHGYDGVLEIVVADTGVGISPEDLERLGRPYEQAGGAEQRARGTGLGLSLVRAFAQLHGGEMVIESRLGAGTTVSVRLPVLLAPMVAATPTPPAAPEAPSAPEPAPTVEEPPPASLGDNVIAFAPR

T2: Virulence sensor histidine kinase PhoQ (Salmonella typhimurium (strain LT2 / SGSC1412 / ATCC 700720)) (UniProt P0DM80)
T2 sequence (whole entry): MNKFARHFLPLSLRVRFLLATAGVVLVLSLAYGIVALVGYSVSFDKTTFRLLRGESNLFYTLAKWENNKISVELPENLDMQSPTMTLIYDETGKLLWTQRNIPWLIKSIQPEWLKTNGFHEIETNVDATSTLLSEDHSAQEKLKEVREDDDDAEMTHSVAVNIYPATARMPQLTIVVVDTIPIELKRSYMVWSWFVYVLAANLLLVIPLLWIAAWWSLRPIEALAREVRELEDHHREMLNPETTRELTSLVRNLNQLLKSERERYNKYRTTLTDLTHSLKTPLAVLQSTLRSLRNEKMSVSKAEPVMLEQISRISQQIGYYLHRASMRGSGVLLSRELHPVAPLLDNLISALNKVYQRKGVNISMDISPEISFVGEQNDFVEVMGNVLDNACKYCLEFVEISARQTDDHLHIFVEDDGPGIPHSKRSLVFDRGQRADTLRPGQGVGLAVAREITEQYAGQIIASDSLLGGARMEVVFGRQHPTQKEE

T3: Cell cycle histidine kinase CckA (Caulobacter vibrioides) (UniProt Q9X688)
T3 sequence (whole entry): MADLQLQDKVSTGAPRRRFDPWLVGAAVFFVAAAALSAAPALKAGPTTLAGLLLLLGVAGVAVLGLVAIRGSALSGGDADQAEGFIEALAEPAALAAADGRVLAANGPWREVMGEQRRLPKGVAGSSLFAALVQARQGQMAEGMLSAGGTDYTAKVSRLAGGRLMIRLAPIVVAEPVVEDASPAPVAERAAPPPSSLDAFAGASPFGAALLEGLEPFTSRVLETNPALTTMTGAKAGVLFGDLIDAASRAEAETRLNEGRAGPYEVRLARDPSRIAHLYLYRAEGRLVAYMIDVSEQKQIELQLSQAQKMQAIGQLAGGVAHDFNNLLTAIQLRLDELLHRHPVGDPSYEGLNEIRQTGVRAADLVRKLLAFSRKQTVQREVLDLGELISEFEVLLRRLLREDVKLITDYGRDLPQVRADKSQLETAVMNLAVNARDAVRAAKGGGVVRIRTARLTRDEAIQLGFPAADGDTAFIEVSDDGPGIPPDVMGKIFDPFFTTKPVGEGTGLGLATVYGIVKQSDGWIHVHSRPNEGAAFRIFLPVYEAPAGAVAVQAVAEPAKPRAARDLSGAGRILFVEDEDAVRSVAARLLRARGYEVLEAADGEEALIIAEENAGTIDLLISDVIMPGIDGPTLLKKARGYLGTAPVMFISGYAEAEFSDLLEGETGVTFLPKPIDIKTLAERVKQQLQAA

T4: Virulence sensor histidine kinase PhoQ (Salmonella typhimurium (strain LT2 / SGSC1412 / ATCC 700720), UniProt P0DM80)
T4 sequence (P0DM80 whole entry): T2 sequence (whole entry)

T5: Cell cycle histidine kinase CckA (Caulobacter vibrioides, UniProt Q9X688)
T5 sequence (Q9X688 whole entry): T3 sequence (whole entry)

B1: Cell cycle histidine kinase CckA (Caulobacter vibrioides), Q9X688 (protein)
chain: T3 sequence (whole entry)

Legend:
[1] = Hemolytic activity against sheep RBC at 0.5 mM after 30 mins relative to control; type: ADME, cell-based, Ovis aries, Erythrocyte; settings: sheep red blood cells (erythrocytes), read-out: Activity
Escherichia coli = test: Antibacterial activity against Escherichia coli DC2 after 24 hrs by broth dilution method; type: functional; settings: DC2, 24 h
[2] = molecular target: T1, Histidine protein kinase DivJ (Caulobacter vibrioides (strain ATCC 19089 / CB15) (Caulobactercrescentus)); test: (§1) Inhibition of recombinant Caulobacter vibrioides N-terminal His6-tagged DHp-catalytic domain DivJ (188 to 585 residues) autophosphorylation expressed in Escherichia coli BL21(DE3) at 500 uM preincubated for 10 mins followed by [gamma-32P]-ATP addition after 15 mins by phosphotransferase dot blot assay relative to control; set-up: scale not given: the % may be the effect or the level left
Caulobacter vibrioides = test: Antibacterial activity against Caulobacter crescentus NA1000 after 24 hrs by broth dilution method; type: functional; settings: NA1000, 24 h
[3] = Inhibition of recombinant full length yeast N-terminal His-tagged Hsp90 expressed in Escherichia coli BL21 incubated overnight in presence of ATP by malachite green dye based assay; set-up: species or system Saccharomyces cerevisiae
Bacillus subtilis = test: Antibacterial activity against Bacillus subtilis YB886 after 24 hrs by broth dilution method; type: functional; settings: YB886, 24 h
[4] = molecular target: T2, Virulence sensor histidine kinase PhoQ (Salmonella typhimurium (strain LT2 / SGSC1412 / ATCC 700720)); test: as §1, with “Salmonella typhimurium” for “Caulobacter vibrioides”, “His6-SUMO-tagged” for “His6-tagged”, “PhoQ (257” for “DivJ (188”, “487” for “585”, “30” for “15”; set-up: scale not given: the % may be the effect or the level left; settings: Salmonella enterica subsp. enterica serovar Typhimurium
[5] = molecular target: T3, Cell cycle histidine kinase CckA (Caulobacter vibrioides); test: Binding affinity to recombinant Caulobacter vibrioides cell cycle histidine kinase CckA delta 3 mutant DHp domain (190 to 562 residues) expressed in Escherichia coli assessed as change in metlting temperature at 30 uM after 2 mins by SYPRO orange dye based DSF assay
[6] = molecular target: Cell cycle histidine kinase CckA (Caulobacter vibrioides, UniProt Q9X688); test: Inhibition of recombinant Caulobacter vibrioides cell cycle histidine kinase CckA deltaTM mutant DHp domain (70 to 691 residues) expressed in Escherichia coli in presence of varying levels of ATP measured every 60 secs for 2 hrs by PK/LDH enzyme coupled assay
[7] = molecular target: T2, Virulence sensor histidine kinase PhoQ (Salmonella typhimurium (strain LT2 / SGSC1412 / ATCC 700720)); test: Inhibition of recombinant Salmonella typhimurium N-terminal His6-SUMO-tagged PhoQ (257 to 487 residues) expressed in Escherichia coli BL21 (DE3) assessed as enzyme aggregation at 400 uM after 30 mins by native-PAGE analysis; settings: Salmonella enterica subsp. enterica serovar Typhimurium
[8] = test system: Histidine protein kinase DivJ (Caulobacter vibrioides); test: Inhibition of recombinant Caulobacter vibrioides N-terminal His6-tagged catalytic domain DivJ (188 to 585 residues) expressed in Escherichia coli BL21 (DE3) assessed as enzyme aggregation at 400 uM after 30 mins by native-PAGE analysis
[9] = molecular target: T2, Virulence sensor histidine kinase PhoQ (Salmonella typhimurium (strain LT2 / SGSC1412 / ATCC 700720)); test: Inhibition of recombinant Salmonella typhimurium N-terminal His6-SUMO-tagged PhoQ (257 to 487 residues) expressed in Escherichia coli BL21 (DE3) assessed as enzyme aggregation at 800 uM after 30 mins by native-PAGE analysis; settings: Salmonella enterica subsp. enterica serovar Typhimurium
[10] = molecular target: T1, Histidine protein kinase DivJ (Caulobacter vibrioides (strain ATCC 19089 / CB15) (Caulobactercrescentus)); test: Inhibition of recombinant Caulobacter vibrioides N-terminal His6-tagged DHp-catalytic domain DivJ (188 to 585 residues) expressed in Escherichia coli BL21 (DE3) at 800 uM preincubated for 10 mins followed by [gamma-32P]-ATP addition after 15 mins by phosphotransferase dot blot assay
[11] = molecular target: T1, Histidine protein kinase DivJ (Caulobacter vibrioides (strain ATCC 19089 / CB15) (Caulobactercrescentus)); test: Inhibition of recombinant Caulobacter vibrioides N-terminal His6-tagged DHp-catalytic domain DivJ (188 to 585 residues) expressed in Escherichia coli BL21 (DE3) at 400 uM preincubated for 10 mins followed by [gamma-32P]-ATP addition after 15 mins by phosphotransferase dot blot assay
[12] = molecular target: T4, Virulence sensor histidine kinase PhoQ; test: Displacement of TNP-ATP from recombinant Salmonella typhimurium GST-tagged DHp-catalytic domain PhoQ (332 to 487 residues) expressed in Escherichia coli XA90 aafter 10 mins by fluorescence assay; set-up: species or system Salmonella enterica subsp. enterica serovar Typhimurium
[13] = molecular target: T5, Cell cycle histidine kinase CckA; test: Competitive inhibition of Caulobacter vibrioides full length wild type cell cycle histidine kinase CckA deltaTM Escherichia coli BL21-AI in presence of varying levels of ATP measured every 60 secs for 2 hrs by Lineweaver-Burk plot analysis
[14] = molecular target: T4, Virulence sensor histidine kinase PhoQ; test: Inhibition of recombinant Salmonella typhimurium N-terminal His6-SUMO-tagged DHp-catalytic domain PhoQ (257 to 487 residues) autophosphorylation expressed in Escherichia coli BL21 (DE3) preincubated for 10 mins followed by [gamma-32P]-ATP addition after 30 mins by phosphotransferase dot blot assay; set-up: species or system Salmonella enterica subsp. enterica serovar Typhimurium
[15] = compound: COc1ccc(-c2c(C)n[nH]c2-c2cc(Cl)c(O)cc2O)cc1; test: Competitive inhibition of Caulobacter vibrioides full length wild type Cell cycle histidine kinase CckA deltaTM expressed in Escherichia coli BL21-AI assessed as enzyme Km in presence of varying levels of ATP measured every 60 secs for 2 hrs by Lineweaver-Burk plot analysis

Molecule	hemolysis at 0.5 h, 500 µM [1]	MIC (Escherichia coli)	Activity [2]	MIC (Caulobacter vibrioides)	MIC (Bacillus subtilis)	Activity [4]	ΔTm [5]	IC50 [6]	inhibition [7]	further results
C[C@@H]1C[C@H]2O[C@@H]2/C=C\C=C\C(=O)Cc2c(Cl)c(O)cc(O)c2C(=O)O1 [RADICICOL]	0%	> 300 µM	123%	> 300 µM	> 300 µM	86%	0.9 °C	184 µM		IC50 [3]: 0.26 µM
COc1ccc(-c2c(C)n[nH]c2-c2cc(Cl)c(O)cc2O)cc1		37.5 to 75 µM (≈ 12.4 to 24.8 µg/mL)	118%	225 µM (≈ 74.4 µg/mL)	150 to 225 µM (≈ 49.6 to 74.4 µg/mL)	66%	5 °C		inactive	inhibition [8]: inactive
CCc1cc(-c2[nH]nc(C)c2-c2ccc3c(c2)OCCO3)c(O)cc1O		37.5 to 75 µM (≈ 13.2 to 26.4 µg/mL)	70%	150 to 225 µM (≈ 52.9 to 79.3 µg/mL)	112 µM (≈ 39.6 µg/mL)	9%	4 °C		inactive	inhibition [9]: inactive; inhibition [10]: Active; inhibition [11]: inactive
CC(C)=CCc1c(O)cc2occ(Cl)c(=O)c2c1O										Kd [12]: 391 µM
COc1ccc(-c2c(-c3cc(Cl)c(O)cc3O)n[nH]c2C)cc1	3%							12.3 to 14 µM		Ki [13]: 3.8 µM; IC50 [14]: 238 µM
B1										Km [15]: 17.9 µM
